Consider 13 compounds from ChEMBL document CHEMBL3044942, “Unexpected plant-systemic insecticidal properties of alkylene-tethered bis-imidacloprid derivatives” (J Pestic Sci, 2010).

The test system of data set [1] is Spodoptera litura. The experiment in a line: Insecticidal activity against Spodoptera litura in compound treated chinese cabbage leaves assessed as mortality after foliar dipping at 100 mg/l at 25 degC measured after 120 hr. In kind it is functional.
Data set [2] relates to Myzus persicae. The experiment in a line: Insecticidal activity against Myzus persicae (green peach aphid) in compound treated chinese cabbage leaves assessed as mortality after foliar dipping at 10 mg/l at 25 degC measured after 120 hr. It counts as functional.
In data set [3] the test system is Myzus persicae. Nature of the data set: Insecticidal activity against Myzus persicae (green peach aphid) in compound treated chinese cabbage leaves assessed as mortality after foliar dipping at 100 mg/l at 25 degC measured after 120 hr. In kind it is functional.
Data set [4] in a line: Octanol-water partition coefficient, log P of the compound. In kind it is physicochemical.
Data set [5] relates to Plutella xylostella. Nature of the data set: Insecticidal activity against Plutella xylostella (diamondback moth) assessed as mortality after soil treatment on third day of infestation. It counts as functional, organism-based.
For data set [6], the system named is Myzus persicae. The experiment in a line: Insecticidal activity against Myzus persicae (green peach aphid) assessed as mortality after soil treatment at 25 degC measured after 11th day of infestation. It counts as functional, organism-based.
For data set [7], the system named is Nilaparvata lugens. The experiment in a line: Insecticidal activity against Nilaparvata lugens (brown plant hoppers) in rice seedlings root dipped in compound assessed as mortality at 100 mg/l measured after 14 days of drench application by systemic insecticidal activity assay. It counts as functional, organism-based.
For data set [8], the system named is Nilaparvata lugens. Nature of the data set: Insecticidal activity against Nilaparvata lugens (brown planthoppers) in rice seedlings root dipped in compound assessed as mortality at 100 mg/l measured after 7 days of drench application by systemic insecticidal activity assay. It counts as functional, organism-based.
For data set [9], the system named is Nilaparvata lugens. Nature of the data set: Insecticidal activity against Nilaparvata lugens (brown planthoppers) in rice seedlings root dipped in compound assessed as mortality at 100 mg/l measured after 3 days of drench application by systemic insecticidal activity assay. It counts as functional, organism-based.
Data set [10] concerns Plutella xylostella. The experiment in a line: Insecticidal activity against Plutella xylostella (diamondback moth) in compound treated cabbage leaves assessed as mortality at 10 mg/l measured on day 3 after foliar treatment by residual insecticidal activity assay. In kind it is functional, organism-based.
The test system of data set [11] is Myzus persicae. The experiment in a line: Insecticidal activity against Myzus persicae (green peach aphid) in compound treated chinese cabbage leaves assessed as mortality at 10 mg/l measured on day 3 after foliar treatment by residual insecticidal activity assay. In kind it is functional, organism-based.
The test system of data set [12] is Nilaparvata lugens. The experiment in a line: Insecticidal activity against Nilaparvata lugens (brown planthopper) in rice seedlings assessed as mortality measured on day 3 after foliar treatment by residual insecticidal activity assay. In kind it is functional, organism-based.
The test system of data set [13] is Spodoptera litura. Nature of the data set: Insecticidal activity against Spodoptera litura in compound treated chinese cabbage leaves assessed as mortality after foliar dipping at 10 mg/l at 25 degC measured after 120 hr. It counts as functional.

Activity calls are given as the source filed them. No cut-off for these calls is given here.

Regarding `O=[N+]([O-])/N=C1\N(CCCCCCCN2CCN(Cc3ccc(Cl)nc3)/C2=N/[N+](=O)[O-])CCN1Cc1ccc(Cl)nc1`, the mortality at 100 µg/mL was determined as 85% in the data set on Spodoptera litura [1] and 97% in the data set with Myzus persicae [3]. Besides, the mortality at 10 µg/mL in the data set on Myzus persicae [2] was 93%; in the data set on Spodoptera litura [13] it was 23%. In [4] (read-out: logP), the logP is 5.18. In addition, the inhibition entry in the data set with Plutella xylostella [5], in the data set with Myzus persicae [6], in the data set with Nilaparvata lugens [7], in the data set with Nilaparvata lugens [8] and with Nilaparvata lugens [9] was “Active” each time. Further, the result with Plutella xylostella [10], with Myzus persicae [11] and with Nilaparvata lugens [12] was Active.

With `O=[N+]([O-])/N=C1\N(CCCN2CCN(Cc3ccc(Cl)nc3)/C2=N/[N+](=O)[O-])CCN1Cc1ccc(Cl)nc1`, the mortality at 100 µg/mL in the data set on Spodoptera litura [1] stood at 80%; with Myzus persicae [3], 27%. For the same compound, the mortality at 10 µg/mL in the data set on Myzus persicae [2] and in the data set with Spodoptera litura [13] was 13% each time. Moreover, the logP in data set [4] (read-out: logP) amounted to 4.35.

In the case of `O=[N+]([O-])/N=C1\N(CCCCN2CCN(Cc3ccc(Cl)nc3)/C2=N/[N+](=O)[O-])CCN1Cc1ccc(Cl)nc1`, the mortality at 100 µg/mL with Spodoptera litura [1] came out at 57%; in the data set on Myzus persicae [3], 7%. The values for the mortality at 10 µg/mL in the data set on Myzus persicae [2] and in the data set with Spodoptera litura [13] were 0% and 7%, respectively. For the same compound, the logP in data set [4] (read-out: logP) worked out at 4.56.

On to `O=[N+]([O-])/N=C1\N(CCCCCCCCCCN2CCN(Cc3ccc(Cl)nc3)/C2=N/[N+](=O)[O-])CCN1Cc1ccc(Cl)nc1`, for which the mortality at 100 µg/mL with Spodoptera litura [1] was 27%; with Myzus persicae [3] it was 43%. Also, the mortality at 10 µg/mL worked out at 27% with Myzus persicae [2] and 0% in the data set with Spodoptera litura [13]. Also, the logP in [4] (read-out: logP) worked out at 5.76.

As for `O=[N+]([O-])/N=C1\N(CCCCCCN2CCN(Cc3ccc(Cl)nc3)/C2=N/[N+](=O)[O-])CCN1Cc1ccc(Cl)nc1`, the mortality at 100 µg/mL in the data set with Spodoptera litura [1] turned out to be 83%; with Myzus persicae [3], 23%. The mortality at 10 µg/mL in the data set on Myzus persicae [2] is 10%; with Spodoptera litura [13] it was 27%. In addition, the logP in data set [4] (read-out: logP) was 4.97. In addition, the inhibition result in the data set with Nilaparvata lugens [7], in the data set with Nilaparvata lugens [8] and in the data set with Nilaparvata lugens [9] was “Active” in each case. For the same compound, the outcome in the data set with Plutella xylostella [10], in the data set on Myzus persicae [11] and in the data set on Nilaparvata lugens [12] was Active.

On to `O=[N+]([O-])/N=C1\N(CCCCCN2CCN(Cc3ccc(Cl)nc3)/C2=N/[N+](=O)[O-])CCN1Cc1ccc(Cl)nc1`, for which the mortality at 100 µg/mL was found to be 40% in the data set on Spodoptera litura [1] and 13% in the data set on Myzus persicae [3]. Moreover, the mortality at 10 µg/mL with Myzus persicae [2] and in the data set with Spodoptera litura [13] was 0% each time. Also, the logP in data set [4] (read-out: logP) came to 4.77.

As to `O=[N+]([O-])/N=C1\N(CCCCCCCCN2CCN(Cc3ccc(Cl)nc3)/C2=N/[N+](=O)[O-])CCN1Cc1ccc(Cl)nc1`, the mortality at 100 µg/mL in the data set on Spodoptera litura [1] stood at 80%; in the data set on Myzus persicae [3], 97%. Moreover, the mortality at 10 µg/mL with Myzus persicae [2] worked out at 83%; in the data set with Spodoptera litura [13], 27%. For the same compound, in data set [4] (read-out: logP), the logP worked out at 5.37.

For the compound `O=[N+]([O-])NC1=NCCN1Cc1ccc(Cl)nc1` [IMIDACLOPRID], the results for the mortality at 100 µg/mL in the data set on Spodoptera litura [1] and with Myzus persicae [3] were 97% and 100%, respectively. Moreover, the mortality at 10 µg/mL with Myzus persicae [2] was found to be 100%; in the data set with Spodoptera litura [13], 17%. For the same compound, the logP in data set [4] came to 1.88.

For `O=[N+]([O-])/N=C1/N(Cc2ccc(Cl)nc2)CCN1Cc1cccc(CN2CCN(Cc3ccc(Cl)nc3)/C2=N/[N+](=O)[O-])c1`, the values for the mortality at 100 µg/mL with Spodoptera litura [1] and in the data set with Myzus persicae [3] were 47% and 57%, respectively. For the same compound, the figures for the mortality at 10 µg/mL in the data set with Myzus persicae [2] and in the data set on Spodoptera litura [13] were 33% and 3%, respectively. Further, the logP in [4] (read-out: logP) was 5.69.

As to `O=[N+]([O-])/N=C1\N(CCCCCCCCCN2CCN(Cc3ccc(Cl)nc3)/C2=N/[N+](=O)[O-])CCN1Cc1ccc(Cl)nc1`, the mortality at 100 µg/mL stood at 57% in the data set with Spodoptera litura [1] and 93% in the data set with Myzus persicae [3]. Besides, the mortality at 10 µg/mL in the data set with Myzus persicae [2] amounted to 77%; in the data set on Spodoptera litura [13], 3%. Also, the logP in data set [4] (read-out: logP) worked out at 5.57.

Consider `O=[N+]([O-])/N=C1\N(CCN2CCN(Cc3ccc(Cl)nc3)/C2=N/[N+](=O)[O-])CCN1Cc1ccc(Cl)nc1`, for which the mortality at 100 µg/mL was 20% in the data set with Spodoptera litura [1] and 97% with Myzus persicae [3]. The mortality at 10 µg/mL is 23% with Myzus persicae [2] and 0% with Spodoptera litura [13]. Besides, the logP in [4] (read-out: logP) amounted to 4.13.

On to `O=[N+]([O-])/N=C1\N(CCCCCCCCCCCCN2CCN(Cc3ccc(Cl)nc3)/C2=N/[N+](=O)[O-])CCN1Cc1ccc(Cl)nc1`, for which the mortality at 100 µg/mL in the data set on Spodoptera litura [1] amounted to 0%; with Myzus persicae [3], 50%. Also, the mortality at 10 µg/mL was found to be 19% in the data set on Myzus persicae [2] and 0% in the data set on Spodoptera litura [13]. Besides, in data set [4] (read-out: logP), the logP is 6.14.

In the case of `O=[N+]([O-])/N=C1\N(Cc2ccc(CN3CCN(Cc4ccc(Cl)nc4)/C3=N/[N+](=O)[O-])cc2)CCN1Cc1ccc(Cl)nc1`, the mortality at 100 µg/mL was determined as 47% in the data set on Spodoptera litura [1] and 97% in the data set with Myzus persicae [3]. Also, the mortality at 10 µg/mL in the data set on Myzus persicae [2] worked out at 97%; with Spodoptera litura [13], 3%. For the same compound, the log partition coefficient (logP) in [4] (read-out: logP) came out at 5.69.
